How the values were obtained:
[1] = tested on: pathogenic bacteria causing bacterial angular leaf spot in cucumbers; assay: In vitro bactericidal activity, bacterial angular leaf spot in cucumbers; type: cell-based, pseudomonas; settings: read-out: inhibitory rate; for inhibition at 1 ppm: dosage 1 ppm; for inhibition at 5 ppm: dosage 5 ppm
Procedure: (§1) Under aseptic conditions, equal amounts of NB culture medium were added to test tubes, and fixed amounts of the sample solutions were pipetted into the above test tubes in an ascending order of concentrations, respectively. The mixtures were well mixed and added with equal amounts of a bacterial suspension in log phase.
(§2) Each step of the procedure was repeated 4 times. After mixing, the mixture samples were incubated in the dark in a shaking incubator at 25° C. The OD values were measured when the bacteria were in log phase.

[2] = tested on: pathogenic bacteria causing bacterial wilt in tobacco; assay: whole plant or invertebrate; type: cell-based, ralstonia; settings: read-out: inhibitory rate
[3] = tested on: pathogenic bacteria causing black shank in potatoes; assay: In vitro bactericidal activity, black shank in potatoes; type: cell-based; settings: read-out: inhibitory rate; for inhibition at 1 ppm: dosage 1 ppm; for inhibition at 5 ppm: dosage 5 ppm
Procedure: as §1, §2

[4] = tested on: pathogenic bacteria causing stem rot in sweet potatoes; assay: In vitro bactericidal activity, stem rot in sweet potatoes; type: cell-based, dikia; settings: read-out: inhibitory rate; for inhibition at 1 ppm: dosage 1 ppm; for inhibition at 5 ppm: dosage 5 ppm
Procedure: as §1, §2

[5] = tested on: pathogenic bacteria causing bacterial blight in rice; assay: whole plant or invertebrate; type: cell-based, xanthomonas; settings: read-out: inhibitory rate
[6] = tested on: pathogenic bacteria causing fruit blotch in watermelons; assay: In vitro bactericidal activity, fruit blotch in watermelons; type: cell-based, acidovorax; settings: read-out: inhibitory rate; for inhibition at 1 ppm: dosage 1 ppm; for inhibition at 5 ppm: dosage 5 ppm
Procedure: as §1, §2

[7] = tested on: pathogenic bacteria causing black rot in Chinese cabbages; assay: In vitro bactericidal activity, black rot in Chinese cabbages; type: cell-based, xanthomonas; settings: Xanthomonas, read-out: inhibitory rate; for inhibition at 1 ppm: dosage 1 ppm; for inhibition at 5 ppm: dosage 5 ppm
Procedure: as §1, §2

[8] = tested on: pathogenic bacteria causing bacterial wilt in cassava; assay: organism not typed; type: cell-based; settings: read-out: inhibitory rate
[9] = tested on: pathogenic bacteria causing fire blight in pears; assay: In vitro bactericidal activity, fire blight in pears; type: cell-based, erwinia; settings: Erwinia, read-out: inhibitory rate; for inhibition at 1 ppm: dosage 1 ppm; for inhibition at 5 ppm: dosage 5 ppm
Procedure: as §1, §2

black shank in potatoes = assay: Living crops in vivo protective activity, potatoes (root irrigation); settings: Solanum tuberosum, read-out: efficacy against black shank in potatoes; for pest or weed control at 5 ppm: dosage 5 ppm; for pest or weed control at 10 ppm: dosage 10 ppm
Procedure: Root irrigation was carried out on the potatoes for tests according to the designed concentration of the agents. The dosage for each plant was 200 mL and was kept consistent (also for the control). The black shank bacteria were inoculated on the second day after the application. The results were investigated according to the disease condition.

cucumber seedlings = assay: Safety for plant growth after application; type: in vivo; settings: dosage 200 ppm
Source text: Taking indoor potted cucumber seedlings as an example, the influence of the compound disclosed herein on growth rate of plant height, chlorophyll content, leaf area, etc. of crops was mainly evaluated.
The results of safety and health-care effect of the compounds of the present disclosure on cucumber seedlings are shown in the following table 1: […]

[10] = tested on: bacterial wilt in tobacco; assay: whole plant or invertebrate; settings: Nicotiana tabacum, read-out: efficacy against bacterial wilt in tobacco
[11] = tested on: stem rot in sweet potatoes; assay: whole plant or invertebrate; settings: read-out: efficacy against stem rot in sweet potatoes
bacterial blight in rice = assay: whole plant or invertebrate; settings: Oryza sativa, read-out: efficacy against bacterial blight in rice
[12] = tested on: fruit blotch in watermelons; assay: whole plant or invertebrate; settings: read-out: efficacy against fruit blotch in watermelons
[13] = tested on: soft rot in Chinese cabbages; assay: whole plant or invertebrate; settings: 48 h, read-out: efficacy against soft rot in Chinese cabbages

| Compound | inhibition at 1 ppm [1] [%] | inhibition at 5 ppm [1] [%] | inhibition at 1 ppm [2] [%] | inhibition at 5 ppm [2] [%] | inhibition at 1 ppm [3] [%] | inhibition at 5 ppm [3] [%] | inhibition at 1 ppm [4] [%] | inhibition at 5 ppm [4] [%] | inhibition at 1 ppm [5] [%] | inhibition at 5 ppm [5] [%] | inhibition at 1 ppm [6] [%] | inhibition at 5 ppm [6] [%] | inhibition at 1 ppm [7] [%] | inhibition at 5 ppm [7] [%] | inhibition at 1 ppm [8] [%] | inhibition at 5 ppm [8] [%] | inhibition at 1 ppm [9] [%] | inhibition at 5 ppm [9] [%] | pest or weed control at 5 ppm (black shank in potatoes) [%] | pest or weed control at 10 ppm (black shank in potatoes) [%] | further results |
| --- | --- | --- | --- | --- | --- | --- | --- | --- | --- | --- | --- | --- | --- | --- | --- | --- | --- | --- | --- | --- | --- |
| O=C(OCCCCO)c1cn(C2CC2)c2cc(Cl)c(F)cc2c1=O [Compound 177] | ≥ 90 | ≥ 90 | ≥ 90 | ≥ 90 | ≥ 90 | ≥ 90 | ≥ 90 | ≥ 90 | ≥ 80 | ≥ 90 | ≥ 90 | ≥ 90 | ≥ 90 | ≥ 90 | ≥ 90 | ≥ 90 | ≥ 90 | ≥ 90 | ≥ 90 | ≥ 90 | safety for plant growth (discoloration, necrosis, wilt, malformation) (cucumber seedlings): safe for plant growth; pest or weed control at 5 ppm [10]: ≥ 90%; pest or weed control at 10 ppm [10]: ≥ 90%; pest or weed control at 5 ppm [11]: ≥ 90%; pest or weed control at 10 ppm [11]: ≥ 90%; pest or weed control at 5 ppm (bacterial blight in rice): ≥ 80%; pest or weed control at 10 ppm (bacterial blight in rice): ≥ 90%; pest or weed control at 5 ppm [12]: ≥ 90%; pest or weed control at 10 ppm [12]: ≥ 90%; pest or weed control at 5 ppm [13]: ≥ 90%; pest or weed control at 10 ppm [13]: ≥ 90% |
| COCCOC(=O)c1cn(C2CC2)c2cc(SC)c(F)cc2c1=O [Compound 381, 2-methoxyethyl 1-cyclopropyl-6-fluoro-7-methylthio-4-oxo-1,4-dihydroquinoline-3-carboxylate] | ≥ 90 | ≥ 90 | ≥ 90 | ≥ 90 | ≥ 90 | ≥ 90 | ≥ 90 | ≥ 90 | ≥ 90 | ≥ 90 | ≥ 90 | ≥ 90 | ≥ 90 | ≥ 90 | ≥ 90 | ≥ 90 | ≥ 90 | ≥ 90 | ≥ 90 | ≥ 90 | safety for plant growth (discoloration, necrosis, wilt, malformation) (cucumber seedlings): safe for plant growth; pest or weed control at 5 ppm [10]: ≥ 90%; pest or weed control at 10 ppm [10]: ≥ 90%; pest or weed control at 5 ppm [11]: ≥ 90%; pest or weed control at 10 ppm [11]: ≥ 90%; pest or weed control at 5 ppm (bacterial blight in rice): ≥ 90%; pest or weed control at 10 ppm (bacterial blight in rice): ≥ 90%; pest or weed control at 5 ppm [12]: ≥ 90%; pest or weed control at 10 ppm [12]: ≥ 90%; pest or weed control at 5 ppm [13]: ≥ 90%; pest or weed control at 10 ppm [13]: ≥ 90% |
| O=C(OCCO)c1cn(C2CC2)c2cc(OCC(F)(F)F)ccc2c1=O [Compound 360] | ≥ 80 | ≥ 90 | ≥ 80 | ≥ 90 | ≥ 80 | ≥ 90 | ≥ 80 | ≥ 90 | ≥ 80 | ≥ 90 | ≥ 80 | ≥ 90 | ≥ 80 | ≥ 90 | ≥ 80 | ≥ 90 | ≥ 80 | ≥ 90 | ≥ 80 | ≥ 90 | safety for plant growth (discoloration, necrosis, wilt, malformation) (cucumber seedlings): safe for plant growth; pest or weed control at 5 ppm [10]: ≥ 90%; pest or weed control at 10 ppm [10]: ≥ 90%; pest or weed control at 5 ppm [11]: ≥ 90%; pest or weed control at 10 ppm [11]: ≥ 90%; pest or weed control at 5 ppm (bacterial blight in rice): ≥ 80%; pest or weed control at 10 ppm (bacterial blight in rice): ≥ 90%; pest or weed control at 5 ppm [12]: ≥ 90%; pest or weed control at 10 ppm [12]: ≥ 90%; pest or weed control at 5 ppm [13]: ≥ 80%; pest or weed control at 10 ppm [13]: ≥ 90% |
| COCOC(=O)c1cn(C2CC2)c2ccc(F)cc2c1=O [Compound 1, methoxymethyl 1-cyclopropyl-6-fluoro-4-oxo-1,4-dihydroquinoline-3-carboxylate] | ≥ 80 | ≥ 90 | ≥ 80 | ≥ 90 | ≥ 80 | ≥ 90 | ≥ 80 | ≥ 90 | ≥ 80 | ≥ 90 | ≥ 80 | ≥ 90 | ≥ 80 | ≥ 90 | ≥ 80 | ≥ 90 | ≥ 80 | ≥ 90 | ≥ 80 | ≥ 90 | safety for plant growth (discoloration, necrosis, wilt, malformation) (cucumber seedlings): safe for plant growth; pest or weed control at 5 ppm [10]: ≥ 90%; pest or weed control at 10 ppm [10]: ≥ 90%; pest or weed control at 5 ppm [11]: ≥ 90%; pest or weed control at 10 ppm [11]: ≥ 90%; pest or weed control at 5 ppm (bacterial blight in rice): ≥ 80%; pest or weed control at 10 ppm (bacterial blight in rice): ≥ 90%; pest or weed control at 5 ppm [12]: ≥ 90%; pest or weed control at 10 ppm [12]: ≥ 90%; pest or weed control at 5 ppm [13]: ≥ 80%; pest or weed control at 10 ppm [13]: ≥ 90% |
| COCCOC(=O)c1cn(C2CC2)c2ccc(Cl)cc2c1=O [Compound 45, 2-methoxyethyl 6-chloro-1-cyclopropyl-4-oxo-1,4-dihydroquinoline-3-carboxylate] | ≥ 90 | ≥ 90 | ≥ 90 | ≥ 90 | ≥ 90 | ≥ 90 | ≥ 90 | ≥ 90 | ≥ 90 | ≥ 90 | ≥ 90 | ≥ 90 | ≥ 90 | ≥ 90 | ≥ 90 | ≥ 90 | ≥ 90 | ≥ 90 | ≥ 80 | ≥ 90 | safety for plant growth (discoloration, necrosis, wilt, malformation) (cucumber seedlings): safe for plant growth; pest or weed control at 5 ppm [10]: ≥ 90%; pest or weed control at 10 ppm [10]: ≥ 90%; pest or weed control at 5 ppm [11]: ≥ 90%; pest or weed control at 10 ppm [11]: ≥ 90%; pest or weed control at 5 ppm (bacterial blight in rice): ≥ 80%; pest or weed control at 10 ppm (bacterial blight in rice): ≥ 90%; pest or weed control at 5 ppm [12]: ≥ 90%; pest or weed control at 10 ppm [12]: ≥ 90%; pest or weed control at 5 ppm [13]: ≥ 80%; pest or weed control at 10 ppm [13]: ≥ 90% |
| COCCOC(=O)c1cn(C2CC2)c2cc(OC)ccc2c1=O [Compound 353] | ≥ 80 | ≥ 90 | ≥ 80 | ≥ 90 | ≥ 80 | ≥ 90 | ≥ 80 | ≥ 90 | ≥ 80 | ≥ 90 | ≥ 80 | ≥ 90 | ≥ 80 | ≥ 90 | ≥ 80 | ≥ 90 | ≥ 80 | ≥ 90 | ≥ 80 | ≥ 90 | safety for plant growth (discoloration, necrosis, wilt, malformation) (cucumber seedlings): safe for plant growth; pest or weed control at 5 ppm [10]: ≥ 90%; pest or weed control at 10 ppm [10]: ≥ 90%; pest or weed control at 5 ppm [11]: ≥ 90%; pest or weed control at 10 ppm [11]: ≥ 90%; pest or weed control at 5 ppm (bacterial blight in rice): ≥ 80%; pest or weed control at 10 ppm (bacterial blight in rice): ≥ 90%; pest or weed control at 5 ppm [12]: ≥ 90%; pest or weed control at 10 ppm [12]: ≥ 90%; pest or weed control at 5 ppm [13]: ≥ 80%; pest or weed control at 10 ppm [13]: ≥ 90% |
